Tests used:
lipoamide = compound: NC(=O)CCCCC1CCSS1 [lipoamide]; assay: thermal stability z-score vs DMSO; higher = more thermally stabilized by treatment; conditions: HeLa, lipoamide concentration 100 µM
Protocol: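 Cellular thermal proteome profiling in HeLa cells. Cells were treated with 100 µM lipoamide for 1 h, with or without 1 mM arsenate for a further 1 h, then heated to ten temperatures (37-66.3 °C), and soluble protein was quantified by TMT mass spectrometry relative to 0.1% DMSO controls. The thermal stability score (sum of log2 fold changes minus the abundance score) was transformed to a z-score; mean of n = 3 experiments.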

potassium arsenate = compound: O=[As]([O-])(O)O.[K+] [potassium arsenate]; assay: as above; conditions: HeLa; arsenate concentration 1 mM
Protocol: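 Cellular thermal proteome profiling in HeLa cells treated with 1 mM arsenate for 1 h (DMSO pretreatment), heated to ten temperatures (37-66.3 °C). Soluble protein was quantified by TMT mass spectrometry relative to DMSO controls; the thermal stability score was transformed to a z-score; mean of n = 3 experiments.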

[1] = arsenate co-treatment: 1 mM arsenate 1 h
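Note: each temperature applied for 3 min, abundance score taken as mean log2 fold change at the two lowest temperatures, z-score obtained by mean subtraction and division by SD.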

UniProt O75530, sequence (O75530 whole entry, looked up): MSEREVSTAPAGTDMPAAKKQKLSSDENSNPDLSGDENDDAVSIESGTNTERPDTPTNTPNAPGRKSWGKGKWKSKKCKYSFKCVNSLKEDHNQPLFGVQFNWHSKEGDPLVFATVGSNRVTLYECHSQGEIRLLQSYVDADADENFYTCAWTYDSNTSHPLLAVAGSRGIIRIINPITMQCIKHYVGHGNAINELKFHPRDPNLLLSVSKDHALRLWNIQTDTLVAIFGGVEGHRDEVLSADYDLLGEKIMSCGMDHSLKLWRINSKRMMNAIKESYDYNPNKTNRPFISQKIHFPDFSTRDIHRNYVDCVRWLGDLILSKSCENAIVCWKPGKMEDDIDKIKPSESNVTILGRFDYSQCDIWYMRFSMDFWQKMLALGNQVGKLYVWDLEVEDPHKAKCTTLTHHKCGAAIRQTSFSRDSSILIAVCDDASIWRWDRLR
UniProt Q8TCX1, sequence (Q8TCX1 whole entry): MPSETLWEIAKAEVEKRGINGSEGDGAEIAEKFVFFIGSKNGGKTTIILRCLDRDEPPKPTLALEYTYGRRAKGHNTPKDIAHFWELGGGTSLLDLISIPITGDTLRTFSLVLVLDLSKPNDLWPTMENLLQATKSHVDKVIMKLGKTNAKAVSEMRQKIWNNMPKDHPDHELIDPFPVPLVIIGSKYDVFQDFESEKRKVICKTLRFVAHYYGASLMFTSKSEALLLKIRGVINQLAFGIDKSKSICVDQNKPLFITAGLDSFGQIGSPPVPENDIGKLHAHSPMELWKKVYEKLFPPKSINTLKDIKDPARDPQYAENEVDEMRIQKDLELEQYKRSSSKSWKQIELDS
UniProt Q9BV94, sequence (Q9BV94 whole entry): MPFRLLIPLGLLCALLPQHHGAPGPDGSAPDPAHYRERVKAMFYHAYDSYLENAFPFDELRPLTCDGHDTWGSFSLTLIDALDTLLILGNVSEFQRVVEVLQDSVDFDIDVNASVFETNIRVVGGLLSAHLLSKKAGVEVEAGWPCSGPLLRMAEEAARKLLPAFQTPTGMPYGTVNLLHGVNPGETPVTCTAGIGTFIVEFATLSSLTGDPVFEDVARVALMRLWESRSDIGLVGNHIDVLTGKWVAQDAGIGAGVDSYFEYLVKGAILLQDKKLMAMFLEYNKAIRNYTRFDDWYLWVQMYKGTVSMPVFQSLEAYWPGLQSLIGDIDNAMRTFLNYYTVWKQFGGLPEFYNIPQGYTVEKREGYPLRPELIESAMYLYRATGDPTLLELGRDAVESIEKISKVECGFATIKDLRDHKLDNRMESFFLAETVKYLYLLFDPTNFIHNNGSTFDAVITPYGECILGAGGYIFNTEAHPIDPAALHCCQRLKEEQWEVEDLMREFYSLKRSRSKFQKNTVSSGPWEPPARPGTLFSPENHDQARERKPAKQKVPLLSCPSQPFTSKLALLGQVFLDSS
UniProt P68104, sequence (P68104 whole entry): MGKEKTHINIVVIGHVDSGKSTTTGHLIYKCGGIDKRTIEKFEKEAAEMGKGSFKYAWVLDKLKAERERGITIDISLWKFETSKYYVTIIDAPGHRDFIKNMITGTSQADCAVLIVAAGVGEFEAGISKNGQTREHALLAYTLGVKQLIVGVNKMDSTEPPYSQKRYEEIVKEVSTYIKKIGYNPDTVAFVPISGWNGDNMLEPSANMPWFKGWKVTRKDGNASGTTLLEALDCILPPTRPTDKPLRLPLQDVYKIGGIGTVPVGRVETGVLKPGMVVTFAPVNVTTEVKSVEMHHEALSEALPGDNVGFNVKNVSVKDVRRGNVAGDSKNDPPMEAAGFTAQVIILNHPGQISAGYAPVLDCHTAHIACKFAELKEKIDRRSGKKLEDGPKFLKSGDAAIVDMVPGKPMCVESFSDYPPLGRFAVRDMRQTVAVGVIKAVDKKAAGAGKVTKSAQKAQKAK
UniProt O00716, sequence (O00716 whole entry): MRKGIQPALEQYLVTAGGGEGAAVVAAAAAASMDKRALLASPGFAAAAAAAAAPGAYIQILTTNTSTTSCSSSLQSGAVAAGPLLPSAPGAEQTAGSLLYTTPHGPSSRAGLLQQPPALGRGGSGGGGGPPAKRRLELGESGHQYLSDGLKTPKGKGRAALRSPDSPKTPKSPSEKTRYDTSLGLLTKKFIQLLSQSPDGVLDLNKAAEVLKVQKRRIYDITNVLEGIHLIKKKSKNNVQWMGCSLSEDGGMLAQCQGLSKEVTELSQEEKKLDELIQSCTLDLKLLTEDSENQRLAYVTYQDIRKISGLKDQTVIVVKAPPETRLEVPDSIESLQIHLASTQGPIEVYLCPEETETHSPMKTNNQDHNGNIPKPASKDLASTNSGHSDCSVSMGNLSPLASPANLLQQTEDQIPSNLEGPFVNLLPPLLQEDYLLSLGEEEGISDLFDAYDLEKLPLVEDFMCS
UniProt Q9NTX5, sequence (Q9NTX5 whole entry): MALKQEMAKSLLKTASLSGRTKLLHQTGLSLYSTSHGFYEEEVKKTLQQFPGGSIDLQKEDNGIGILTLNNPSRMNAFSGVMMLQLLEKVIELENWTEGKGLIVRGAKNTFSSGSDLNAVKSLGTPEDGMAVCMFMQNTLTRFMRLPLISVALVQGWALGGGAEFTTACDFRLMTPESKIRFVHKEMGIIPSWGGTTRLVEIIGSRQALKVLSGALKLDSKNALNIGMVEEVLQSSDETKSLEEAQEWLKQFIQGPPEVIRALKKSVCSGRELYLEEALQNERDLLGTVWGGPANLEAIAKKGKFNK
UniProt Q15075, sequence (Q15075 whole entry): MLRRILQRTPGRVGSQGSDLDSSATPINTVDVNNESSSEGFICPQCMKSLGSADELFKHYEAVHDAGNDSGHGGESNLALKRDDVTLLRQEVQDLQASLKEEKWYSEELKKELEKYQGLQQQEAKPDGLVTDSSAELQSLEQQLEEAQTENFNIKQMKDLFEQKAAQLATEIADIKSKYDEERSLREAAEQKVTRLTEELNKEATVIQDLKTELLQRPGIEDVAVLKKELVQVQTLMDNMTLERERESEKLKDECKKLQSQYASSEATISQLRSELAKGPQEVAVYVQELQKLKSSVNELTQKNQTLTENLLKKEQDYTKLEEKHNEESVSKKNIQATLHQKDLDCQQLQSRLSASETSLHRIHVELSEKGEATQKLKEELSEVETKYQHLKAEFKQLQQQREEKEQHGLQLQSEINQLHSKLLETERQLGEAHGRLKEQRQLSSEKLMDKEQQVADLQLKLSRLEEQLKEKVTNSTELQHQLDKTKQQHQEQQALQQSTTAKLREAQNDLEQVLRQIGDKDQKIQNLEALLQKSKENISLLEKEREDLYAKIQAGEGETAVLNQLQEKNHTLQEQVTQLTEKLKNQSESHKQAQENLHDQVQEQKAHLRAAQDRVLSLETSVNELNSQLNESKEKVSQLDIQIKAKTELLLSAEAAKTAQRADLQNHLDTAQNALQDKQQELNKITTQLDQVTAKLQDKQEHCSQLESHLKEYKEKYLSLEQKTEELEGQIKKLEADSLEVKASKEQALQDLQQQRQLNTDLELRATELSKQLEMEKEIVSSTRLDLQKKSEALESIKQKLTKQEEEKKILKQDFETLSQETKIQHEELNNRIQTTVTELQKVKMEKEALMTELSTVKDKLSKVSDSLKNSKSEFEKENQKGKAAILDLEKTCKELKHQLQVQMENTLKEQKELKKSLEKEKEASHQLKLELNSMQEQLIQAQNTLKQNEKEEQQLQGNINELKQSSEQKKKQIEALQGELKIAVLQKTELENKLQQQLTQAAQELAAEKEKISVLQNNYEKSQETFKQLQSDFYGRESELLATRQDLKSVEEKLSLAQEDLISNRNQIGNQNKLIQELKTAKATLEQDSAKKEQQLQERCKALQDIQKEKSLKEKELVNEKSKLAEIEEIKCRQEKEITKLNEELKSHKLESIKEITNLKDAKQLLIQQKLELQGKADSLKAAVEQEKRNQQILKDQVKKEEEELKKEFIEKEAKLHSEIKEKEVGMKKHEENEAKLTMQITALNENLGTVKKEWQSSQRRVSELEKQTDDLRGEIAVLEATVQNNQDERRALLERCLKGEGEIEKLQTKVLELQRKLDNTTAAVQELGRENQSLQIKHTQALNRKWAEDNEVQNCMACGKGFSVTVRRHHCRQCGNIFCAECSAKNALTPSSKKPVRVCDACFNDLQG
UniProt Q16254, sequence (Q16254 whole entry): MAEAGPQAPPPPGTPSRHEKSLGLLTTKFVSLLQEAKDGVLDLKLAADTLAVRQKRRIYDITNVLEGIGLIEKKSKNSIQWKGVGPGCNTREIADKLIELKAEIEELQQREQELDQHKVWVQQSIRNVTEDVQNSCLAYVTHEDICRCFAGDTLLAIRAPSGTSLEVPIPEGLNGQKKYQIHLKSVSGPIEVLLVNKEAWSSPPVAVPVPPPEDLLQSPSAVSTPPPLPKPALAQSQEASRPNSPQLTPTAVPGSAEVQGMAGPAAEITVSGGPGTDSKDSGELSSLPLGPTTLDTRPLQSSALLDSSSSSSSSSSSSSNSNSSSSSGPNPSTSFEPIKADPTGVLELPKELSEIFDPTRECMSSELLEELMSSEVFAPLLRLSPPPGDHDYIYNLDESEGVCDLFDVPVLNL
UniProt P29692, sequence (P29692 whole entry): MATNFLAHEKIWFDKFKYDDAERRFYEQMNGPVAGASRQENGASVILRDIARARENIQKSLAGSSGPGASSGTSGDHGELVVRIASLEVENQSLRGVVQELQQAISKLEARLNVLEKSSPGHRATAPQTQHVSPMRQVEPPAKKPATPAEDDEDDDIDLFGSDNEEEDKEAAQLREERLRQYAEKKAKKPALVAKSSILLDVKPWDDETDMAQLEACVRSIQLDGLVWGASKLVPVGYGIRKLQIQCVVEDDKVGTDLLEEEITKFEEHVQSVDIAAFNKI
UniProt Q9BVJ7, sequence (Q9BVJ7 whole entry): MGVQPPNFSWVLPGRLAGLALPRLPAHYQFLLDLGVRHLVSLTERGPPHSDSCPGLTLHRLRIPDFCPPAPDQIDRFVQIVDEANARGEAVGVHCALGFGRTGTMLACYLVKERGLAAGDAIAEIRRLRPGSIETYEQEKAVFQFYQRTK
UniProt Q9NP97, sequence (Q9NP97 whole entry): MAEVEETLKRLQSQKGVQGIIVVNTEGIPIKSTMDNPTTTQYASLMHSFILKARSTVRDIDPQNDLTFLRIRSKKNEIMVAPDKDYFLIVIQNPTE

Target	thermal stability z-score (lipoamide; [1])	thermal stability z-score (lipoamide; arsenate co-treatment: none)	thermal stability z-score (potassium arsenate)
DUSP12 (UniProt Q9UNI6)	-0.0977	0.123	1.05
DUSP23 (UniProt Q9BVJ7)	1.22	0.839	-0.0505
DUT (UniProt P33316)	-0.171	0.377	-0.727
DVL2 (UniProt O14641)	-0.0654	-0.194	-0.113
DXO (UniProt O77932)	0.186	0.216	0.0286
DYM (UniProt Q7RTS9)	0.487	-0.0128	-0.365
DYNC1H1 (UniProt Q14204)	-0.0235	0.118	-0.164
DYNC1I2 (UniProt Q13409)	0.0629	0.266	-0.19
DYNC1LI1 (UniProt Q9Y6G9)	-0.18	-0.1	0.463
DYNC1LI2 (UniProt O43237)	-0.543	-0.166	0.192
DYNC2H1 (UniProt Q8NCM8)	-0.15	-0.28	-0.209
DYNC2LI1 (UniProt Q8TCX1)	0.0696	-0.0585	0.202
DYNLL1 (UniProt P63167)	-0.627	-0.0429	0.163
DYNLL2 (UniProt Q96FJ2)	0.256	0.641	0.118
DYNLRB1 (UniProt Q9NP97)	-0.37	0.743	0.237
DYNLT3 (UniProt P51808)	0.487	-0.208	-0.596
DYRK1A (UniProt Q13627)	-0.118	-0.0216	0.54
E2F3 (UniProt O00716)	-0.295	-0.154	-0.342
E2F4 (UniProt Q16254)	0.295	0.54	0.373
EAF1 (UniProt Q96JC9)	1.02	0.0799	-0.000349
EAPP (UniProt Q56P03)	0.767	0.459	-0.167
EARS2 (UniProt Q5JPH6)	-1	-0.188	0.0121
EBAG9 (UniProt O00559)	1.73	1.25	0.749
EBNA1BP2 (UniProt Q99848)	0.29	-0.281	0.463
ECD (UniProt O95905)	-0.47	-0.00943	-0.232
ECE1 (UniProt P42892)	-0.298	-0.225	-0.191
ECE2 (UniProt P0DPD6)	-0.0621	0.0487	-0.104
ECEL1 (UniProt O95672)	-1.25	-0.891	1.11

Target	thermal stability z-score (lipoamide; [1])	thermal stability z-score (lipoamide; arsenate co-treatment: none)	thermal stability z-score (potassium arsenate)
ECH1 (UniProt Q13011)	-0.108	0.163	-0.0954
ECHDC1 (UniProt Q9NTX5)	0.928	0.478	0.479
ECHS1 (UniProt P30084)	-0.919	-0.57	-1.22
ECI1 (UniProt P42126)	0.859	0.555	0.59
ECI2 (UniProt O75521)	0.0605	-0.724	-0.44
ECSIT (UniProt Q9BQ95)	0.434	-0.221	-0.207
ECT2 (UniProt Q9H8V3)	-0.0726	-0.00204	-0.475
EDC3 (UniProt Q96F86)	-0.713	-0.608	-0.555
EDC4 (UniProt Q6P2E9)	-0.258	0.0716	-0.454
EDEM1 (UniProt Q92611)	-0.0592	-0.0491	0.0795
EDEM2 (UniProt Q9BV94)	0.18	0.234	0.127
EDEM3 (UniProt Q9BZQ6)	-3.5	-2.77	0.485
EDF1 (UniProt O60869)	0.657	0.578	0.199
EDIL3 (UniProt O43854)	-0.15	-0.528	1.14
EDRF1 (UniProt Q3B7T1)	-0.147	-0.327	-0.168
EEA1 (UniProt Q15075)	0.149	0.231	-0.325
EED (UniProt O75530)	0.547	0.145	-0.276
EEF1A1 (UniProt P68104)	-0.0408	0.166	0.2
EEF1B2 (UniProt P24534)	0.748	0.472	0.849
EEF1D (UniProt P29692)	0.303	0.257	-0.0726
EEF1E1 (UniProt O43324)	0.552	0.194	0.997
EEF1G (UniProt P26641)	0.0213	0.149	0.215
EEF2 (UniProt P13639)	-0.0517	0.0227	-0.39
EEF2K (UniProt O00418)	-0.0522	-0.0721	-0.0657
EEF2KMT (UniProt Q96G04)	0.0521	0.046	0.0729
EEFSEC (UniProt P57772)	-0.771	0.715	-0.884
EFCAB14 (UniProt O75071)	-0.971	-1.74	0.262

From the supplement of paper PMC12463676, “Small-molecule dissolution of stress granules by redox modulation benefits ALS models” (Nature Chemical Biology, 2025)
